Reference: ChEMBL document CHEMBL1126071, “Cyclic pentapeptide endothelin antagonists with high ETA selectivity. Potency- and solubility-enhancing modifications” (J Med Chem, 1992)
Residues, ends and D or L forms follow the SMILES beside them.

Target: T1, Endothelin-1 receptor (Sus scrofa, UniProt Q29010)
T1 sequence (Q29010 whole entry): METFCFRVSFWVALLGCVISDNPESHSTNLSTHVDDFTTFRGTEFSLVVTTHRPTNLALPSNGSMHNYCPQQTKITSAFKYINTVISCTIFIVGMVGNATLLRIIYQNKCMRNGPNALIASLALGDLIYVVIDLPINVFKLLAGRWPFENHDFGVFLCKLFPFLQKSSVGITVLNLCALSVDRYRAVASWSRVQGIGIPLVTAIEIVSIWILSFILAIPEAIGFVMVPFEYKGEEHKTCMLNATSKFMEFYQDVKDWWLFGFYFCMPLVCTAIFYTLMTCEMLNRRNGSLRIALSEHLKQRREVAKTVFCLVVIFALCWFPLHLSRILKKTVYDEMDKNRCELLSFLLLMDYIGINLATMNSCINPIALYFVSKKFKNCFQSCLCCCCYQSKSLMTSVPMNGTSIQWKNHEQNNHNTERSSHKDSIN
Assay: Binding activity against Endothelin A receptor of Porcine aortic smooth muscle membranes

Row | Compound | IC50 max [nM]
1 | CC[C@H](C)[C@H]1NC(=O)[C@H](C)NC(=O)[C@@H](CCC(=O)O)NC(=O)[C@@H](Cc2c[nH]c3ccccc23)NC(=O)[C@H](CC(C)C)NC1=O (HELM PEPTIDE1{A.[CC[C@H](C)[C@@H](N[*:1])C(=O)[*:2]].L.[dW].[dE]}$PEPTIDE1,PEPTIDE1,1:R1-5:R2$$$V2.0) | 1400
2 | CC(C)C[C@@H]1NC(=O)[C@@H](C(C)C)NC(=O)[C@H](C)NC(=O)[C@@H](CC(=O)O)NC(=O)[C@@H](Cc2c[nH]c3ccccc23)NC1=O (HELM PEPTIDE1{A.[dV].L.[dW].[dD]}$PEPTIDE1,PEPTIDE1,1:R1-5:R2$$$V2.0) | 110
3 | CC(C)C[C@@H]1NC(=O)[C@@H](C(C)C)NC(=O)[C@H](C)NC(=O)[C@@H](CCC(=O)O)NC(=O)[C@@H](Cc2c[nH]c3ccccc23)NC1=O (HELM PEPTIDE1{A.[dV].L.[dW].[dE]}$PEPTIDE1,PEPTIDE1,1:R1-5:R2$$$V2.0) | 3000
4 | CC(C)[C@H]1NC(=O)[C@H](C)NC(=O)[C@@H](CC(=O)O)NC(=O)[C@@H](Cc2c[nH]c3ccccc23)NC(=O)[C@@H]2CCCN2C1=O (HELM PEPTIDE1{A.[dV].P.[dW].[dD]}$PEPTIDE1,PEPTIDE1,1:R1-5:R2$$$V2.0) | 8500
5 | CC(C)C[C@@H]1NC(=O)[C@@H](C(C)C)NC(=O)[C@@H]2CCCN2C(=O)[C@@H](CC(=O)O)NC(=O)[C@@H](Cc2c[nH]c3ccccc23)NC1=O (HELM PEPTIDE1{L.[dW].[dD].P.[dV]}$PEPTIDE1,PEPTIDE1,1:R1-5:R2$$$V2.0) | 22
6 | CC(C)C[C@@H]1NC(=O)[C@@H](C(C)C)NC(=O)CN(C)C(=O)[C@@H](CC(=O)O)NC(=O)[C@@H](Cc2c[nH]c3ccccc23)NC1=O (HELM PEPTIDE1{L.[dW].[dD].[Sar].[dV]}$PEPTIDE1,PEPTIDE1,1:R1-5:R2$$$V2.0) | 32
7 | CC(C)C[C@@H]1NC(=O)[C@@H](C(C)C)NC(=O)[C@H](C)N(C)C(=O)[C@@H](CC(=O)O)NC(=O)[C@@H](Cc2c[nH]c3ccccc23)NC1=O (HELM PEPTIDE1{L.[dW].[dD].[meA].[dV]}$PEPTIDE1,PEPTIDE1,1:R1-5:R2$$$V2.0) | 34
8 | CC(C)C[C@@H]1NC(=O)[C@@H](C(C)C)NC(=O)[C@@H]2CCCN2C(=O)[C@@H](CCC(=O)O)NC(=O)[C@@H](Cc2c[nH]c3ccccc23)NC1=O (HELM PEPTIDE1{L.[dW].[dE].P.[dV]}$PEPTIDE1,PEPTIDE1,1:R1-5:R2$$$V2.0) | 410
9 | CC(C)C[C@H]1C(=O)N[C@H](Cc2c[nH]c3ccccc23)C(=O)N[C@H](CC(=O)O)C(=O)N2CCC[C@H]2C(=O)N[C@H](C(C)C)C(=O)N1C (HELM PEPTIDE1{[meL].[dW].[dD].P.[dV]}$PEPTIDE1,PEPTIDE1,1:R1-5:R2$$$V2.0) | 35
